In patent US20150080438A1, “6,7-Dihydro-5H-benzo[7]annulene derivatives, processes for their preparation, pharmaceutical products comprising them and their use for preparing medicaments” (Bayer Intellectual Property GmbH, priority 2011, published 2015):

How the values were obtained:
oestrogen receptor (ER) = target: T1, oestrogen receptor (ER) (Homo sapiens, UniProt P03372); assay: Anti-oestrogenic action in MVLN cells (inhibition of estradiol-induced luciferase, transactivation antagonism); assay type: cell-based; settings: inhibition of estradiol-induced luciferase activity, read-out: Anti-oestrogenic action in vitro: MVLN transactivation antagonism IC50
T1 construct: These MVLN cells express, along with the functional oestrogen receptor (ER), a reporter construct; endogenous in cells; host or cells: MVLN cells (MCF7 derivative with ER-responsive luciferase reporter)
T1 sequence (P03372 1-595): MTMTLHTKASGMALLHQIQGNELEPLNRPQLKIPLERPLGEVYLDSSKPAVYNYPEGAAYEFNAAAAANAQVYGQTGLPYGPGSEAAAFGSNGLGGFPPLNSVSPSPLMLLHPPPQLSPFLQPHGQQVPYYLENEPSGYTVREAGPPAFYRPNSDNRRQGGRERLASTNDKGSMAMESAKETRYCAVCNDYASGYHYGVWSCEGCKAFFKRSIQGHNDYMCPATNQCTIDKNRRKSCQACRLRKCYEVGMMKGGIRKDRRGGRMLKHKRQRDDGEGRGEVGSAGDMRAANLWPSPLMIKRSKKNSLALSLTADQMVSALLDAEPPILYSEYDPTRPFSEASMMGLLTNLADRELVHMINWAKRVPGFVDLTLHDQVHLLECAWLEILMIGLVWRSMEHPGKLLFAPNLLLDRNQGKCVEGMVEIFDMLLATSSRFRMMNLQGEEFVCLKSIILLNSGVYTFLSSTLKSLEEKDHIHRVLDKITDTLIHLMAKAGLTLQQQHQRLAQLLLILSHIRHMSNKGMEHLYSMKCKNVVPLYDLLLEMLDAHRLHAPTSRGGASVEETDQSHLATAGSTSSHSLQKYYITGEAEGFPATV
How it was run: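 MCF7-derived MVLN cells carrying an ER-driven luciferase reporter; test compounds applied with estradiol, and anti-oestrogenic action scored as inhibition of the estradiol-induced luciferase signal.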

[1] = test system: uterus growth induced by 17β-estradiol; assay: Anti-uterus growth test in the adult rat; assay type: in vivo; settings: ovariectomized adult rat, percentage inhibition of uterus growth; for inhibition in vivo at 0.3 mg/kg: sc, 0.3 mg/kg s.c. d1-d3 with 1.5 μg/kg/day 17β-estradiol, read-out: Anti-oestrogenic activity in vivo in % at a dose of 0.3 mg/kg (rat)
From the text: The uterus of oestrogen-substituted rats can be used as a test model for detecting a direct action of substances with anti-oestrogenic properties. The parameter of oestrogenic action is estradiol-induced uterus growth in rats, which is inhibited by simultaneous administration of a substance with anti-oestrogenic action. The experimental animals (n=5-6 animals/group) were ovariectomized before the start of the test, to rule out the influence of endogenous oestrogens. After a phase of 6 to 10 days, the test substances are administered s.c. on 3 consecutive days (d1-d3) in combination with a substitution dose of 1.5 μg/kg/day of 17β-estradiol. 17β-estradiol alone serves as positive control, and the excipients serve as negative control. On day 4 (d4) the animals are killed, and the uteri and vaginae are removed and weighed. The organ weights are converted to mg/100 g body weight, then the mean value and the standard deviation are calculated for each dosage. The inhibition of uterus or vaginal growth induced by 17β-estradiol is shown as percentage inhibition. The selected claimed substances were investigated in adult female rats as described for their anti-oestrogenic, inhibitory action on the weight of the uterus. At the dosage used, the substances show a marked anti-oestrogenic action in vivo (Table 3 and Table 4).

Row | SMILES | IC50 (oestrogen receptor (ER)) [nM] | inhibition in vivo at 0.3 mg/kg [1] [%] | Anti-oestrogenic activity in vivo in % at a dose of 1 mg/kg (rat) ([1]; 1 mg/kg s.c. d1-d3 with 1.5 μg/kg/day 17β-estradiol) [%]
1 | CN(CCCCCCC1=C(c2cccc(S(C)(=O)=O)c2)CCCc2cc(O)ccc21)CCC[S+]([O-])CCCC(F)(F)C(F)(F)F (racemic) [Example 21, 8-(3-Mesylphenyl)-9-[6-(methyl{3-[(RS)-(4,4,5,5,5-pentafluoropentyl)sulphinyl]propyl}amino)hexyl]-6,7-dihydro-5H-benzo[7]annulen-3-ol] | 5 | 37 | –
2 | CN(CCCCCC1=C(c2ccccc2)CCCc2cc(O)ccc21)CCCS(=O)(=O)CCCC(F)(F)C(F)(F)F [Example 3, 9-[5-(Methyl{3-[(4,4,5,5,5-pentafluoropentyl)sulphonyl]propyl}amino)pentyl]-8-phenyl-6,7-dihydro-5H-benzo[7]annulen-3-ol] | 15 | – | 64
3 | CN(CCCCCCC1=C(c2cccc(O)c2)CCCc2cc(O)ccc21)CCCS(=O)(=O)CCCC(F)(F)C(F)(F)F [Example 13, 8-(3-Hydroxyphenyl)-9-[6-(methyl{3-[(4,4,5,5,5-pentafluoropentyl)sulphonyl]propyl}amino)hexyl]-6,7-dihydro-5H-benzo[7]annulen-3-ol] | 3 | 79 | –
4 | CN(CCCCCCC1=C(c2cccc(O)c2)CCCc2cc(O)ccc21)CCCCCCS(=O)(=O)CCCC(F)(F)C(F)(F)F [Example 19, 8-(3-Hydroxyphenyl)-9-[6-(methyl{6-[(4,4,5,5,5-pentafluoropentyl)sulphonyl]hexyl}amino)hexyl]-6,7-dihydro-5H-benzo[7]annulen-3-ol] | 5 | 38 | –
5 | CN(CCCCCCC1=C(c2ccccc2)CCCc2c1ccc(O)c2Cl)CCCS(=O)(=O)CCCC(F)(F)C(F)(F)F [Example 102, 4-Chloro-9-[6-(methyl{3-[(4,4,5,5,5-pentafluoropentyl)sulphonyl]propyl}amino)hexyl]-8-phenyl-6,7-dihydro-5H-benzo[7]annulen-3-ol] | 32 | 24 | –
6 | CN(CCCCCCC1=C(c2cc(O)ccc2F)CCCc2cc(O)ccc21)CCCS(=O)(=O)CCCC(F)(F)C(F)(F)F [Example 23, 8-(2-Fluoro-5-hydroxyphenyl)-9-[6-(methyl{3-[(4,4,5,5,5-pentafluoropentyl)sulphonyl]propyl}amino)hexyl]-6,7-dihydro-5H-benzo[7]annulen-3-ol] | 2 | 77 | –
7 | CN(CCCCCCC1=C(c2ccccc2)CCCc2cc(O)ccc21)CCCCS(=O)(=O)CCCC(F)(F)F [Example 58, 9-[6-(Methyl{4-[(4,4,4-trifluorobutyl)sulphonyl]butyl}amino)hexyl]-8-phenyl-6,7-dihydro-5H-benzo[7]annulen-3-ol] | 3 | 88 | –
8 | CN(CCCCCC1=C(c2ccccc2)CCCc2cc(O)ccc21)CCCCS(=O)(=O)CCCC(F)(F)C(F)(F)F [Example 85, 9-[5-(Methyl{4-[(4,4,5,5,5-pentafluoropentyl)sulphonyl]butyl}amino)pentyl]-8-phenyl-6,7-dihydro-5H-benzo[7]annulen-3-ol] | 40 | – | –
9 | CN(CCCCCCC1=C(c2ccc(F)c(O)c2)CCCc2c1ccc(O)c2F)CCCS(=O)(=O)CCCC(F)(F)C(F)(F)F [Example 114, 4-Fluoro-8-(4-fluoro-3-hydroxyphenyl)-9-[6-(methyl{3-[(4,4,5,5,5-pentafluoropentyl)sulphonyl]propyl}amino)hexyl]-6,7-dihydro-5H-benzo[7]annulen-3-ol] | 20 | – | –
10 | CN(CCCCCC1=C(c2ccc(O)c(F)c2)CCCc2cc(O)ccc21)CCCSCCCC(F)(F)C(F)(F)F [Example 36, 8-(3-Fluoro-4-hydroxyphenyl)-9-[5-(methyl{3-[(4,4,5,5,5-pentafluoropentyl)sulphanyl]propyl}amino)pentyl]-6,7-dihydro-5H-benzo[7]annulen-3-ol] | 3 | – | –
